According to patent publication US20230040386A1, “URSODEOXYCHOLIC ACID-CONTAINING AGENT FOR TREATING OR PREVENTING PRESBYOPIA” (priority 2018, published 2023):

What was measured:
[1] = test system: lens; assay: Pharmacological Test 3: lens elasticity after instillation of ursodeoxycholic acid (free form); format: in vivo, C57BL/6J mice; conditions: 2.5 μL/eye, 3 times per day, 12 to 15 days, vs vehicle control
Description: A vehicle comprising 0.1% (w/v) of ethyl pyruvate, 0.269% (w/v) of sodium dihydrogenphosphate monohydrate (NaH2PO4H2O), 0.433% (w/v) of disodium hydrogenphosphate (Na2HPO4), 0.2% (w/v) of hydroxypropyl methylcellulose, and 0.5% (w/v) of NaCl was prepared. Ursodeoxycholic acid was sonicated with the addition of the vehicle to prepare a 1.5% (w/v) suspension. The resulting 1.5% (w/v) suspension was diluted with the vehicle to prepare a 0.5% (w/v) suspension. Further, the resulting 0.5% (w/v) suspension was diluted with the vehicle to prepare a 0.15% (w/v) suspension. The total amount of each sample to be used in one day was prepared before use. EV06 was sonicated with the addition of the vehicle to prepare a 1.5% (w/v) solution. The total amount of the sample to be used in one day was prepared before use. 1) Each test sample (2.5 μL/eye) was instilled into the right eye of 8-month-old C57BL/6J mice with a Pipetman 3 times per day (around 9:00, 13:00 and 17:00) for 12 to 15 days. 2) After the final instillation, the mice were euthanized by carbon dioxide inhalation, and then the eyeballs were extracted and rinsed with Hank's balanced salt solution (HBSS). 3) The sclera near the optic nerve was cut with a razor, the lens was removed through the incision, and the removed lens was immersed in HBSS. 4) The lens was placed on a glass slide, and an all-in-one fluorescence microscope BZ-9000 (Keyence) was used to capture an image of the lens (Image a). 5) Next, one cover glass (Corning^(registered trade mark) 22×22 mm Square) was placed on the lens, and an image in which the thickness of the lens changed due to the weight was similarly captured (image b). 6) A change in the lens diameter was calculated from Equation 1 wherein the lens diameter of Image a is subtracted from the lens diameter of Image b, as described below. Then, the lens elasticity improvement of each sample group compared with the vehicle control group was calculated from Equation 2 described below. The mean of the vehicle control group was based on 5 eyes, the mean of each ursodeoxycholic acid sample group was based on 10 eyes, and the mean of the EV06 sample group was based on 10 eyes. Change in lens diameter=Lens diameter in Image b of each test sample−Lens diameter in Image a of each test sample (Equation 1) Lens elasticity improvement of each sample group=Mean change in lens diameter of each Test sample group−Mean change in lens diameter of Vehicle control group (Equation 2)

[2] = test system: lens; assay: Pharmacological Test 4: lens elasticity, once-daily instillation of ursodeoxycholic acid for 2 weeks; format: in vivo, C57BL/6J mice; conditions: 14 days; for Lens elasticity improvement: vs vehicle control; for Lens elasticity improvement, in words: instilled once-daily, 1% and 3% ursodeoxycholic acid samples, 1.5% EV06 sample
Description: A vehicle comprising 0.1% (w/v) of ethyl pyruvate, 0.269% (w/v) of sodium dihydrogenphosphate monohydrate (NaH2PO4H2O), 0.433% (w/v) of disodium hydrogenphosphate (Na2HPO4), 0.2% (w/v) of hydroxypropyl methylcellulose, 0.5% (w/v) of NaCl was prepared. Ursodeoxycholic acid was sonicated with the addition of the vehicle to prepare a 3.0% (w/v) suspension. The resulting 3.0% (w/v) suspension was diluted with the vehicle to prepare a 1.0% (w/v) suspension. Further, the resulting 1.0% (w/v) suspension was diluted with the vehicle to prepare a 0.3% (w/v) suspension. The total amount of each sample to be used in one day was prepared before use. EV06 was sonicated with the addition of the vehicle to prepare a 1.5% (w/v) solution. The total amount of the sample to be used in one day was prepared before use. 1) Each test sample (2.5 μL/eye) was instilled into the right eye of 8-month-old C57BL/6J mice with a Pipetman once per day (QD; around 9:00), twice per day (BID; around 9:00 and 17:00), or 3 times per day (TID; around 9:00, 13:00 and 17:00) for 14 days. 2) After the final instillation, the mice were euthanized by carbon dioxide inhalation, and then the eyeballs were extracted and rinsed with Hank's balanced salt solution (HBSS). 3) The sclera near the optic nerve was cut with a razor, the lens was removed through the incision, and the removed lens was immersed in HBSS. 4) The lens was placed on a glass slide, and an all-in-one fluorescence microscope BZ-9000 ([…]) was used to capture an image of the lens (image a). 5) Next, one cover glass (Corning^(registered trade mark) 22×22 mm Square) was placed on the lens, and an image in which the thickness of the lens changed due to the weight was similarly captured (Image b). 6) A change in the lens diameter was calculated from Equation 1 wherein the lens diameter of Image a is subtracted from the lens diameter of Image b, as described below. Then, the lens elasticity improvement of each sample group compared with the vehicle control group was calculated from Equation 2 described below. The mean of the vehicle control group was based on 5 eyes, the mean of each ursodeoxycholic acid sample group was based on 10 eyes, and the mean of each EV06 sample group was based on 10 eyes. Change in lens diameter=Lens diameter in Image b of each test sample-Lens diameter in Image a of each test sample (Equation 1) Lens elasticity improvement of each sample group=Mean change in lens diameter of each Test sample group-Mean change in lens diameter of Vehicle control group (Equation 2)

Row | SMILES | Lens elasticity improvement ([1]; 0.15% (w/v) sample) | Lens elasticity improvement ([1]; 0.5% (w/v) sample) | Lens elasticity improvement ([1]; 1.5% (w/v) sample) | Lens elasticity improvement ([2]; 0.3% (w/v) sample, QD) | Lens elasticity improvement ([2]; 1% (w/v) sample, QD) | Lens elasticity improvement ([2]; 3% (w/v) sample, QD) | Lens elasticity improvement, in words [2] | Lens elasticity improvement ([2]; 1.5% (w/v) sample, BID) | Lens elasticity improvement ([2]; 1.5% (w/v) sample, QD) | Lens elasticity improvement ([2]; 1.5% (w/v) sample, TID)
1 | C[C@H](CCC(=O)O)[C@H]1CC[C@H]2[C@@H]3[C@@H](O)C[C@@H]4C[C@H](O)CC[C@]4(C)[C@H]3CC[C@]12C [ursodeoxycholic acid, 3α,7β-Dihydroxy-5β-cholan-24-oic acid] | 31.8 μm | 39.4 μm | 59.9 μm | 2.8 μm | 28.1 μm | 30.4 μm | potent lens elasticity improvement |  |  | 
2 | C[N+](C)(C)CCOC(=O)CCCC[C@@H]1CCSS1 [EV06, lipoic acid choline ester] |  |  | 42.5 μm |  |  |  | no effect | 15.7 μm | −3.6 μm | 29.5 μm
